The source of these data is patent US10227315B2, “Mitochondrial uncouplers for treatment of metabolic diseases and cancer” (RUTGERS, THE STATE UNIVERSITY OF NEW JERSEY, priority 2016, dated 2019).

The structures appear in SMILES notation.

Broadly, the GI50 is the concentration at which growth is held to half of that of the control. What is called EC50 is the concentration that produces a half-maximal response.

Data set [1] deals with mouse pancreatic cancer cell Panc 2 cells, or human pancreatic cancer Panc 1 cells. In words: Cell cycle progression (G0/G1 arrest), PI staining, flow cytometry. Type of data set: cell-based. The note with it: 48 h treatment. Here is the method: The effect of example compounds on cell cycle progression was analyzed. The tumor cells, mouse pancreatic cancer cell Panc 2 cells, or human pancreatic cancer Panc 1 cells, were treated with the individual compounds at concentrations that were efficacious for mitochondrial uncoupling for 48 h, whereas the control group was treated with vehicle DMSO. Cells were then fixed with ice-cold 70% ethanol on ice for 30 minutes. After that, 5 μl of propidium iodide (PI) (Sigma, P 4170, 1 mg/ml) solution and 50 μl of RNAse A (Sigma, R-4875) solutions were added to the fixed cells, which were then kept for 30 minutes in the dark at room temperature. The cell cycle profile of the cells was analyzed by flow cytometry. […] Table IV below summarizes the activity of other example compounds on inducing G0/G1 cell cycle arrest.
In general terms: In flow cytometry, cells or beads pass a laser one at a time.

A further data set concerns Cancer cells. The experiment in a line: Clonogenicity of cancer cells, colony counting. Type of data set: cell-based. The settings on record: 200 cells per well, 10 days. The procedure: The impact of example compounds on clonogenicity was analyzed. Cancer cells were plated in 6-well plates at 200 cells per well. Cells were treated with individual compounds at various concentrations. Cells were maintained with changes of the medium plus compounds for 10 days. The colonies were then fixed in 1:3 Acetic acid—Methanol solution for 5 minutes, stained with 0.02% crystal violet for 20 minutes and counted.

Data set [2] concerns Human colon cancer HCT116 cell line and human lung cancer cell line H1299. In words: Cancer cell growth inhibition, NCI protocol, SRB staining. The note with it: 48 h incubation, HCT116 and H1299 cells, read-out: GI50, 50% growth inhibition activity. Type of data set: cell-based. Here is the method:
The effect of example compounds on cancer cell growth was evaluated. The cell growth inhibition assays were performed using a protocol standardized by National Cancer Institute (NCI) for evaluating anti-cancer drugs (https://dtp.cancer.gov/discovery_development/nci-60/methodology.htm). Human colon cancer HCT116 cell line and human lung cancer cell line H1299 were used for the assays. The human tumor cells were inoculated into 96 well microtiter plates. After cell inoculation, the microtiter plates were incubated for cell growth for 24 h prior to addition of compounds. After 24 h, two plates of each cell line were fixed in situ with TCA, to represent a measurement of the cell population for each cell line at the time of compound addition (Tz). Test compounds were solubilized in dimethyl sulfoxide, At the time of test compound addition, five 10-fold or ½ log serial dilutions were made to provide a total of five test compound concentrations plus control. Aliquots of 100 μl of these different test compound dilutions were added to the appropriate microtiter wells already containing 100 μl of medium, resulting in the required final test compound concentrations. Following test compound addition, the plates were incubated for an additional 48 h. The assay was terminated by the addition of cold TCA, Cells were fixed in situ with 50 μl of cold 50% (w/v) TCA (final concentration, 10% TCA), washed five times with tap water and air dried. Sulforhodamine B (SRB) solution (100 ul) at 0.4% (w/v) in 1% acetic acid was added to each well, and plates were incubated for 10 minutes at room temperature. After staining, unbound dye was removed by washing five times with 1% acetic acid and the plates were air dried. […] Using the seven absorbance measurements [time zero, (Tz), control growth, (C), and test growth in the presence of compound at the five concentration levels (Ti)], the percentage growth was calculated at each of the test compound concentrations levels.

The subject of data set [3] is mouse myoblast C2C12 cells. In words: Oxygen consumption rate (OCR) assay with Seahorse XF96 or XF24, mitochondrial uncoupling. Type of data set: cell-based. The settings on record: 10% fetal bovine serum, in the presence of oligomycin 2.5 μM, read-out: Cmin (minimal concentration to induce ATP synthase-independent OCR increase). From the text: By definition, mitochondrial uncoupling is the decoupling of mitochondrial electron transport chain activity (mitochondrial oxidation) from ATP synthesis by mitochondrial ATP synthase. Technically, mitochondrial uncoupling activity is defined by the ability of a chemical compound to induce oxygen consumption of cells or isolated mitochondria in the presence of a mitochondrial ATP synthase inhibitor such as oligomycin. Accordingly, we determined mitochondrial uncoupling activity by oxygen consumption rate (OCR) assay with a Seahorse XF96 or a Seahorse XF24 instrument following the vendor's instruction, using mouse myoblast C2C12 cells growing in medium containing 10% fetal bovine serum. […] The minimal concentration (Cmin) of each compound under which OCR is induced in the presence of oligomycin, was determined.

Data set [4] relates to NIH-3T3 cells, or HepG2 cells. The experiment in a line: Mitochondrial membrane potential assay, TMRE staining. Type of data set: cell-based. The settings on record: 2 h; two hours treatment, TMRE 100 nM; read-out: EC50, mitochondrial membrane potential reduction (TMRE staining reduced to about 50%). The procedure: Mitochondrial uncoupling may also lead to a reduction of mitochondrial membrane potential. We performed mitochondrial membrane potential assay using TMRE (tetramethylrhodamine ethyl ester) staining method with cultured mammalian cells, the NIH-3T3 cells, or HepG2 cells. Cells were seeded onto 6-well plates and cultured in DMEM medium supplemented with 10% fetal bovine serum and 2 mM glutamine. Cells were allowed to grow to logarithmic growth phase prior to experiments. The cells were treated with each individual compound at various concentrations for two hours, followed by staining with TMRE at final concentration of 100 nM for 15 minutes. The cells were then washed once with PBS, and examined under fluorescence microscopy. Cells treated with various concentrations of niclosamide ethanolamine were used as positive control. Reduction of mitochondrial TMRE staining was estimated as a quantification of mitochondrial uncoupling activity. […] The following table (Table II) summarizes the activity of individual compounds in reducing mitochondrial membrane potential in cultured mammalian cells.

Data set [5] relates to HFD-induced diabetic mouse model. In words: High-fat diet (HFD)-induced fatty liver and diabetic mouse model. Type of data set: in vivo. The note with it: HFD containing 600 ppm compound. The source says: To test the efficacy of compounds in treating type 2 diabetes in vivo, we used Compound 28 as an example, and determined its effect in reducing blood glucose, reducing blood insulin concentration, improving insulin sensitivity and reducing fatty liver in a clinically relevant mouse model, the HFD-induced fatty liver and diabetic model. C57B6/J male mice were fed HFD (60% calorie from fat) for 4 months, starting at age of 2 months, to induce high blood glucose, high blood insulin, and insulin tolerance symptoms of type 2 diabetes as well as fatty liver. The mice then either continued with HFD or with HFD containing 600 ppm Compound 28. Blood glucose, blood insulin levels were measured and glucose tolerance assay was performed to measure insulin sensitivity. The mice were sacrificed and the effect of Compound 28 on fatty liver development was evaluated by comparing the liver weight.

Data set [6] relates to Panc 2 cells injected into the spleen of NOD-scid mice. The experiment in a line: Hepatic metastasis of pancreatic cancer mouse model. Type of data set: in vivo. The note with it: chow containing 750 ppm compound. The procedure:
The in vivo anti-cancer efficacy of an example compound, Compound 28, was examined using a well-established hepatic metastasis of pancreatic cancer mouse model. The mouse pancreatic cancer cells, Panc 2 cells (0.25 million cells), were injected into the spleen of immune compromised NOD-scid mice. The mice were randomized to two groups (n=6 each group), one group was fed normal chow, the second group was fed chow containing 750 ppm Compound 28. Three weeks later, mice were sacrificed and the hepatic metastasis of the pancreatic cancer was observed (FIGS. 5A-5B) and quantified (FIGS. 6A-6B) in control and Compound 28 treated mice.

In the case of `Cc1cc(Cl)cc(C(=O)Nc2nc3ccc(C(F)(F)F)cc3s2)c1O` [Compound 1, 5-Chloro-2-hydroxy-3-methyl-N-(6-(trifluoromethyl)benzo[d]thiazol-2-yl)benzamide], the “effective concentration that can arrest cell cycle at G0/G1 phase” value in data set [1] is “*** (*** <10 μM)”. In addition, the “IC95, Concentration that reduces clonogenicity by 95%” value in the data set with Cancer cells is “*** (*** <10 μM)”.
`O=C(Nc1nc2c(F)cc(F)cc2s1)c1cc(Cl)ccc1O` [Compound 23, 5-Chloro-N-(4,6-difluorobenzo[d]thiazol-2-yl)-2-hydroxybenzamide]: in data set [2], the GI50 is less than 10 µM. In addition, the minimal effective concentration in data set [3] was less than 10 µM.
Turning to `O=C(Nc1nc2c(C(F)(F)F)cc(F)cc2s1)c1cc(Cl)ccc1O` [Compound 24, 5-Chloro-N-(6-fluoro-4-(trifluoromethyl)benzo[d]thiazol-2-yl)-2-hydroxybenzamide], the GI50 in data set [2] is less than 10 µM. Besides, the minimal effective concentration in data set [3] was less than 10 µM. In data set [4], the half-maximal effective concentration (EC50) is less than 10 µM.
Take `CCc1cc(Cl)cc(C(=O)Nc2nc3ccc(C(F)(F)F)cc3s2)c1O` [Compound 27, 5-Chloro-3-ethyl-2-hydroxy-N-(6-(trifluoromethyl)benzo[d]thiazol-2-yl)benzamide]: the “effective concentration that can arrest cell cycle at G0/G1 phase” value in data set [1] is listed as “*** (*** <10 μM)”. In data set [2], the GI50 is less than 10 µM. Besides, the minimal effective concentration in data set [3] is less than 10 µM. Further, the EC50 in data set [4] was less than 10 µM. The “IC95, Concentration that reduces clonogenicity by 95%” value in the data set on Cancer cells is listed as “*** (*** <10 μM)”.
For `Cc1cc(Cl)cc(C(=O)Nc2nc3ccc(C(F)(F)F)cc3s2)c1O` [Compound 28, 5-Chloro-2-hydroxy-3-methyl-N-(6-(trifluoromethyl)benzo[d]thiazol-2-yl)benzamide ethanolamine], in data set [5] (C57B6/J male mice), the blood glucose concentration entry is reported as “markedly reduced”, the blood insulin concentration entry is given as “markedly reduced”, the “fatty liver weight caused by high fat diet” value is on record as “reduced fatty liver weight” and the insulin sensitivity entry is given as “improves insulin sensitivity”. Moreover, the plasma concentration entry in data set [5] was “at an efficacious concentration that uncouples mitochondria”. The GI50 in data set [2] is less than 10 µM. Moreover, the minimal effective concentration in data set [3] was less than 10 µM. In addition, in data set [6], the blood plasma concentrations result is “in the range of efficacious concentration for uncoupling mitochondria”. In data set [6] (three weeks), the hepatic tumor metastasis entry was “little or no hepatic tumor metastasis”, the metastatic tumor volume entry is “dramatically reduced” and the “number of metastatic tumor nodules” value is on record as “dramatically reduced”.
Take `Cc1cc(Cl)cc(C(=O)Nc2nc3c(C(F)(F)F)cccc3s2)c1O` [Compound 31, 5-Chloro-2-hydroxy-3-methyl-N-(4-(trifluoromethyl)benzo[d]thiazol-2-yl)benzamide]: the GI50 in data set [2] was less than 10 µM. Also, in data set [3], the minimal effective concentration was less than 10 µM.
Turning to `CC(C)c1cc(Cl)cc(C(=O)Nc2nc3ccc(C(F)(F)F)cc3s2)c1O` [Compound 38, 5-Chloro-2-hydroxy-3-isopropyl-N-(6-(trifluoromethyl)benzo[d]thiazol-2-yl)benzamide], the “effective concentration that can arrest cell cycle at G0/G1 phase” value in data set [1] is “*** (*** <10 μM)”. The GI50 in data set [2] is less than 10 µM. The minimal effective concentration in data set [3] is less than 10 µM. Moreover, the EC50 in data set [4] was less than 10 µM. In addition, the “IC95, Concentration that reduces clonogenicity by 95%” value with Cancer cells is listed as “*** (*** <10 μM)”.
For `Cc1cc(Cl)cc(C(=O)Nc2nc3c(F)cc(F)cc3s2)c1O` [Compound 40, 5-Chloro-N-(4,6-difluorobenzo[d]thiazol-2-yl)-2-hydroxy-3-methylbenzamide], the GI50 in data set [2] was less than 10 µM. The minimal effective concentration in data set [3] is less than 10 µM. In addition, the half-maximal effective concentration (EC50) in data set [4] is less than 10 µM.
